# Measurements reported in patent publication US5994361A, “Substituted purinyl derivatives with immunomodulating activity” (priority 1995, dated 1999).
# Assays:
# [1] = Body weight, compound #1 with Cytoxan 28 mg/kg (Example 94); format: in vivo, Balb/c mice; parameters: body weight: unit not given here
# Experimental: In another experiment, the CTX treatment was prolonged. Balb/c mice were injected s.c. with 5×10^5 DA-3 tumor cells at day 0. At day 4 when established tumors appeared, tumor-bearing animals were randomized (n=11/gr.) and injected with CTX (at 28 mg/kg) i.v. bolus injections at days 4, 11, and 18. […]
# [2] = test system: cytotoxic T lymphocytes, P815 target cells; assay: Cytotoxic T lymphocytes (CTL) assay; format: cell-based, C57B1/6 mice and DBA/2 mice; details: Mus musculus, P815, 120 h; at 10^-9 M; read-out: CTL activity, % increase compared to IL2 (100%)
# Experimental: Mixed lymphocyte reaction is an in vitro counterpart of the allograft rejection. Briefly, T cell response was obtained when cells taken from two inbred strains from two outbred individuals of any species were mixed in vitro in culture.
# After 4 days incubation, ^3 H thymidine uptake and cytotoxicity assay (CTL) were performed.
# 3 C57B1/6 mice and 3 DBA/2 mice wre killed and lymphocytes prepared using lympholyte M. The cell concentration was adjusted to 10×10^6 cell/ml for each lysis. DBA/2 cells were irradiated with 3000 Rads. 1 ml of the C57 cells+1 ml of the DBA/2 cells+1 ml of the drug at 3 different concentrations were incubated together for 5 days. Positive control was IL-2 at 15 ng/ml final. After 5 days, the CTL and MLR tests were carried out.
# P815 target cells were labelled with Cr^51. After labelling, the cells were resuspended to 5×10^4 cells/ml.
# 100 μl of target cells+100 μl Of T cells were incubated for 4 hrs and then 100 μl of supernatant was counted using a gamma counter.
structure (smiles),measurement,setting,value
"CN(C)c1ncnc2c1ncn2CCCCCOC(=O)N[C@H](CCCNC(=N)N)C(=O)O [Compound #1, N,N-Dimethylaminopurinyl Pentoxycarbonyl D-Arginine]",body weight,"[1]; BCH-1393 50 mg/kg + CTX 28 mg/kg, day 7",18.2
same,body weight,"[1]; BCH-1393 50 mg/kg + CTX 28 mg/kg, day 9",19.1
same,body weight,"[1]; BCH-1393 50 mg/kg + CTX 28 mg/kg, day 11",19.0
same,body weight,"[1]; BCH-1393 50 mg/kg + CTX 28 mg/kg, day 14",18.6
same,body weight,"[1]; BCH-1393 50 mg/kg + CTX 28 mg/kg, day 16",19.5
same,body weight,"[1]; BCH-1393 50 mg/kg + CTX 28 mg/kg, day 18",19.3
same,body weight,"[1]; BCH-1393 50 mg/kg + CTX 28 mg/kg, day 21",18.9
same,body weight,"[1]; BCH-1393 50 mg/kg + CTX 28 mg/kg, day 23",18.8
same,body weight,"[1]; BCH-1393 50 mg/kg + CTX 28 mg/kg, day 25",19.5
same,body weight,"[1]; BCH-1393 50 mg/kg + CTX 28 mg/kg, day 28",19.4
same,body weight,"[1]; BCH-1393 50 mg/kg + CTX 28 mg/kg, day 30",19.3
same,body weight,"[1]; BCH-1393 50 mg/kg Ip (Days 3-28) + CTX 28 mg/kg Iv (days 4, 11, 18), day 4",18.7
same,body weight loss,[1]; compound #1 50 mg/kg + CTX 28 mg/kg,No significant body weight loss
same,body weight,"[1]; single agent (CTX 28 mg/kg days 4, 11, 18, or BCH-1393 50 mg/kg days 3-28), day 4",18.6
same,body weight,"[1]; single agent (CTX 28 mg/kg or BCH-1393 50 mg/kg), day 7",19.1
same,body weight,"[1]; single agent (CTX 28 mg/kg or BCH-1393 50 mg/kg), day 9",19.3
same,body weight,"[1]; single agent (CTX 28 mg/kg or BCH-1393 50 mg/kg), day 11",18.9
same,body weight,"[1]; single agent (CTX 28 mg/kg or BCH-1393 50 mg/kg), day 14",18.9
same,body weight,"[1]; single agent (CTX 28 mg/kg or BCH-1393 50 mg/kg), day 16",19.5
same,body weight,"[1]; single agent (CTX 28 mg/kg or BCH-1393 50 mg/kg), day 18",18.9
same,body weight,"[1]; single agent (CTX 28 mg/kg or BCH-1393 50 mg/kg), day 21",19.3
same,body weight,"[1]; single agent (CTX 28 mg/kg or BCH-1393 50 mg/kg), day 23",19.3
same,body weight,"[1]; single agent (CTX 28 mg/kg or BCH-1393 50 mg/kg), day 25",19.5
same,body weight,"[1]; single agent (CTX 28 mg/kg or BCH-1393 50 mg/kg), day 28",19.7
same,body weight,"[1]; single agent (CTX 28 mg/kg or BCH-1393 50 mg/kg), day 30",20.0
same,activation at 0.001 µM,[2],> 80%
